“And” between values parts separate entries of the source, which are not always exact repeats. Identical values can stand only once.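 Where inhibition never reached the appropriate level, the endpoint shown equals the highest concentration tested. Otherwise, values were interpolated linearly from a five-concentration, 48-hour dose response in 96-well plates. Abbreviation: GI50, concentration required for 50% inhibition of growth. TGI: total growth inhibition.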
What was measured:
Assay in all cases: NCI anticancer screen, dose series, 48 h
NCI-H23 lung = tested on: NCI-H23 lung
SW-620 colon = tested on: SW-620 colon
ACHN renal = tested on: ACHN renal
HL-60(TB) leukemia = tested on: HL-60(TB) leukemia
NCI-H522 lung = tested on: NCI-H522 lung
HOP-62 NSCLC = tested on: HOP-62 NSCLC
SK-MEL-2 melanoma = tested on: SK-MEL-2 melanoma
LOX IMVI melanoma = tested on: LOX IMVI melanoma
OVCAR-3 ovarian = tested on: OVCAR-3 ovarian
UO-31 renal = tested on: UO-31 renal

Compound	TGI (NCI-H23 lung)	TGI (SW-620 colon)	TGI (ACHN renal) [µM]	TGI (HL-60(TB) leukemia)	TGI (NCI-H522 lung)	TGI (HOP-62 NSCLC)	TGI (SK-MEL-2 melanoma)	TGI (LOX IMVI melanoma)	TGI (OVCAR-3 ovarian)	TGI (UO-31 renal)	GI50 (NCI-H23 lung) [µM]	GI50 (SW-620 colon) [µM]	GI50 (ACHN renal) [µM]	GI50 (HL-60(TB) leukemia) [µM]	GI50 (NCI-H522 lung) [µM]	GI50 (HOP-62 NSCLC) [µM]	GI50 (SK-MEL-2 melanoma) [µM]	GI50 (LOX IMVI melanoma) [µM]	GI50 (OVCAR-3 ovarian) [µM]	GI50 (UO-31 renal) [µM]
C/C(=C\COc1ccc2ccc(=O)oc2c1)CCC(=O)C(C)(C)O	> 100 µM	38.9 µM	> 100	45.7 µM	43.6 µM	> 100 µM	> 100 µM	32.8 µM	46.4 µM	91.9 µM	–	–	–	–	–	–	–	–	–	–
O=C1CCC(=O)C(C(=O)CCC(=O)Nc2ccc(Cl)cc2)C1 (configuration not stated)	> 100 µM	> 100 µM	> 100	> 100 µM	> 100 µM	–	> 100 µM	> 100 µM	> 100 µM	> 100 µM	–	–	–	–	–	–	–	–	–	–
Cc1cncc2cccc(S(=O)(=O)N3CCCNC[C@@H]3C)c12	> 100 µM	> 100 µM	> 100	100 µM	> 100 µM	> 100 µM	> 100 µM	87 µM	> 100 µM	23.8 µM	31.5	8.06	14.2	36.2	> 23.1	11.5	61	7.94	58.9	2.16
O=C(Nc1ccc(I)cc1F)c1cc(F)ccc1O	4.04 µM	> 34.7 µM	> 100	1.93 µM	–	6.46 µM	1.92 µM	3.91 µM	> 56.4 µM	1.34 µM	0.379	0.777	0.466	0.382	0.304	1.77	0.367	0.418	0.395	0.236
NC(=S)c1cn(C2OC(CO)C(O)C2O)c2ncnc(N)c12 (configuration not stated)	0.677 µM	0.592 µM	–	26.7 µM	0.554 µM	1.95 µM	0.605 µM	2.49 µM	1.23 µM	1.68 µM	0.139	0.105	0.229	0.18	0.168	0.065	0.175	0.139	0.173	0.275
O=C(CN1CCN(c2cc3c(cc2F)c(=O)c(C(=O)O)cn3C2CC2)CC1)Nc1ccc(C(=O)/C=C/c2ccccc2)cc1	14.3 µM	> 100 µM	31.9	> 100 µM	7.78 µM	> 100 µM	11.3 µM	> 100 µM	> 100 µM	45.4 µM	2.48	3.8	3.3	9.44	1.7	4.46	2.94	2.32	3.65	2.78
COC(=O)[C@@H](C)C[C@H](Cc1ccccc1)NC(=O)c1csc([C@@H](C[C@H](C(C)C)N(C)C(=O)[C@@H](NC(=O)CN(C)C)C2CC2)OC(C)=O)n1	> 16.5 µM	> 16.5 µM	> 16.5	0.0106 µM	0.26 µM	> 16.5 µM	0.149 µM	> 16.5 µM	–	> 16.5 µM	0.0635	0.0137	0.0938	0.00272	0.0033	0.0585	0.00701	0.0301	0.00309	0.478
Cn1cc(C2=C(c3cn(C)c4cc(Cl)ccc34)C(=O)NC2=O)c2ccccc21	9.1 µM	> 25 µM	> 25	0.241 µM	0.345 µM	> 25 µM	> 25 µM	> 25 µM	0.154 µM	> 25 µM	0.106	0.1	0.181	0.0814	0.0723	0.124	0.212	0.198	0.0653	0.195
CCCCCCCC(=O)O[C@H]1[C@H]2[C@@H](CC1(C)C)C(=O)[C@]13O[C@H]1C(=O)[C@]1(CO1)[C@]23C	28.4 µM and 8.51 µM	3.27 µM and 2.74 µM	4.09	4.57 µM and 2.04 µM	2.9 µM and 3.85 µM	38.9 µM and 40.2 µM	45.5 µM and 8.57 µM	5.63 µM and 5.48 µM	4.55 µM and 6.02 µM	12.9 µM and 28.2 µM	12.5	1.39	–	0.381	–	19.5	22.7	2.16	2.37	5.73
CN(C)CC1CCCCCCCCCCC1=O (configuration not stated)	> 100 µM	> 100 µM	> 100	> 100 µM	> 100 µM	> 100 µM	> 100 µM	–	> 100 µM	> 100 µM	> 100	> 100	> 100	> 100	> 100	> 100	> 100	–	> 100	> 100
